Laboratory results reported in patent US8932597B2 (priority 2008, dated 2015).

Columns and labels:
[1] = tested on: HuM2e antibody 23K12; type: binding, human
[2] = tested on: anti-M2 human monoclonal antibody Z3G1; type: binding

| Substance | Signal (peptides that bind to 23K21 and 8I10) [1] | Signal (peptides that show specific binding to Z3G1) [2] | Signal (peptides that bind to Z3G1) [2] |
| --- | --- | --- | --- |
| 387 (SLLTEVETPIRTEWGCRCNDSSD; epitope peptide) [compound 387] | 1365 | 2360 | – |
| 594 (SLLTEVQTPIRNEWGCRCNDSSD; epitope peptide) [compound 594] | 838 | 2289 | – |
| 605 (SLLTEVETPIRNMWGCRCNDSSD; epitope peptide) [compound 605] | 820 | 2455 | – |
| 380 (SLLTEVETPIRNTWGCRCNDSSD; epitope peptide) [compound 380] | 1409 | 2314 | – |
| 543 (MSLLTCVGMSLLTEV; epitope peptide) [compound 543] | 925 | – | 2627 |
| 582 (SLLTEVETPIRAEWGCRCNDSSD; epitope peptide) [compound 582] | 856 | 2306 | – |
| 288 (CSCLCEVGMSLLTEV; epitope peptide) [compound 288] | 2154 | – | 1812 |
| 461 (SLLTEVETPLRNEWGCRCNDSSD; epitope peptide) [compound 461] | 1268 | 2239 | – |
| 542 (MSLCTEVGMSLLTCV; epitope peptide) [compound 542] | 927 | – | 2722 |
| 239 (CSLLTEVETCEVETPIRNEWGSRSNC; epitope peptide) [compound 239] | 821 | 2549 | – |
| 437 (SLLTEVETPIR; epitope peptide) [compound 437] | 1012 | – | 2297 |
| 411 (SLLTEVETPIRNEWGCRCNDMSD; epitope peptide) [compound 411] | 744 | – | 2405 |
| 435 (SLLTEVETP; epitope peptide) [compound 435] | 899 | – | 2380 |
| 674 (SLLTEVETPIRNEWGCRCTDSSD; epitope peptide) [compound 674] | 733 | – | 2253 |
| 459 (SLITEVETPIRNEWGCRCNDSSD; epitope peptide) [compound 459] | 1277 | 1996 | – |
| 576 (SLLTEVETPIFNEWGCRCNDSSD; epitope peptide) [compound 576] | 862 | 2176 | – |
| 337 (SLLTEVETPIRNEWGCRCNYSSD; epitope peptide) [compound 337] | 1666 | – | 2475 |
| 345 (CSLLTEVGSCLTEV; epitope peptide) [compound 345] | 1616 | 2703 | – |
| 595 (SLLTEVETPIRNEWGWRCNDSSD; epitope peptide) [compound 595] | 838 | 2439 | – |
| 390 (CLLTEVGSLLTEV; epitope peptide) [compound 390] | 1349 | 2494 | – |
| 484 (SLVTEVETPIRNEWGCRCNDSSD; epitope peptide) [compound 484] | 1175 | 2029 | – |

| Substance | Signal (peptides that bind to 23K21 and 8I10) [1] | Signal (peptides that show specific binding to Z3G1) [2] | Signal (peptides that bind to Z3G1) [2] |
| --- | --- | --- | --- |
| 620 (SLLTEVETPIRFEWGCRCNDSSD; epitope peptide) [compound 620] | 806 | 2364 | – |
| 320 (SLLTEVGSLLTEV; epitope peptide) [compound 320] | 1794 | 2530 | – |
| 593 (SLLTEVEIPIRNEWGCRCNDSSD; epitope peptide) [compound 593] | 839 | 2365 | – |
| 318 (SLLTEVETPIRNEWGCRCKDSSD; epitope peptide) [compound 318] | 1802 | – | 2549 |
| 381 (SLLQEVETPIRNEWGCRCNDSSD; epitope peptide) [compound 381] | 1399 | 2432 | – |
| 666 (SLLTEVETPIRNAWGCRCNDSSD; epitope peptide) [compound 666] | 743 | 2334 | – |
| 316 (MSLLTEVGCSLLTEV; epitope peptide) [compound 316] | 1809 | – | 2650 |
| 400 (SLLTEVETPIRNEWGCRCNVSSD; epitope peptide) [compound 400] | 865 | – | 2476 |
| 517 (SLLTEVETPIRNEMGCRCNDSSD; epitope peptide) [compound 517] | 1020 | 2398 | – |
| 695 (SLLTEVEVPIRNEWGCRCNDSSD; epitope peptide) [compound 695] | 719 | 2286 | – |
| 547 (SLLTETETPIRNEWGCRCNDSSD; epitope peptide) [compound 547] | 919 | 1594 | – |
| 443 (SLLTEVETPIRNEWGCR; epitope peptide) [compound 443] | 864 | – | 2444 |
| 326 (SLLTEVETPIRNEWGCRCNDSSD; epitope peptide) [compound 326] | 1749 | 2476 | – |
| 290 (CSLLTEVGSLLTCV; epitope peptide) [compound 290] | 2142 | 2503 | – |
| 359 (MSLLTEVGMSCLTEV; epitope peptide) [compound 359] | 1535 | – | 2793 |
| 329 (SLLTEVGSCLCEC; epitope peptide) [compound 329] | 1708 | 2558 | – |
| 656 (SLLTEVETPIWNEWGCRCNDSSD; epitope peptide) [compound 656] | 753 | 2250 | – |
| 648 (SLLTEVETPIRNEWGKRCNDSSD; epitope peptide) [compound 648] | 762 | 2295 | – |
| 425 (SLLTEVETPIRNEWGCRCNDSKD; epitope peptide) [compound 425] | 770 | – | 2361 |
| 304 (MSLCTEVGMSLLCEV; epitope peptide) [compound 304] | 1935 | – | 2616 |
